Data reported in paper PMC11876601 (Molecular Systems Biology, 2025).
Read-outs that look alike come from different tables or passages of the source.

Tests used:
Assay in all cases: cells
MiaPaCa-2 [1] = system: MiaPaCa-2; set-up: ATPlite luminescence viability of PDAC cell lines, 11-dose single-agent curves, 4-parameter fit; conditions: Homo sapiens, MIA PaCa-2, 72 h, read-out: EC50 [nM]
Description: (§1) Afterward, small amounts were transferred to 384-well intermediate plates (Greiner Bio-One GmbH, Germany). […] For drug combination screening, 1000 to 5000 cells were seeded into 384-well plates (CulturPlate™, Perkin Elmer, MA, USA) using a Multidrop™ Combi Reagent Dispenser (Thermo Scientific, MA, USA) in 50 µl medium per well 24 h prior to drug treatment (seeding densities see Appendix Table S1). […] The final DMSO concentration in each well was 0.2%. […] Eight wells per plate without library drug served as negative controls, and sixteen wells per plate containing 5 µM Staurosporine served as positive controls. […] Next, we analyzed the drug sensitivity of immortalized duct cell line HPDE to detect effects unrelated to pancreatic cancer.

Dan-G [2] = system: Dan-G; set-up: ATPlite luminescence viability of PDAC cell lines, 11-dose single-agent curves, 4-parameter fit; conditions: 72 h, read-out: EC50 [nM]
Description: as §1

PaTu-8988-T [3] = system: PaTu-8988-T; set-up: ATPlite luminescence viability of PDAC cell lines, 11-dose single-agent curves, 4-parameter fit; conditions: Homo sapiens, PaTu 8988t, 72 h, read-out: EC50 [nM]
Description: as §1

Capan-1 = system: Capan-1; set-up: Viability of PDAC cell lines, ATPlite luminescence, 11-dose single-agent curve fit; conditions: Homo sapiens, CAPAN-1, 72 h, read-out: EC50 [nM]
In short: (§2)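 screening used cells plated at 1000 to 5000 per well one day before treatment. Final DMSO was 0.2%. Each plate held untreated negative-control wells and 5 µM staurosporine positive-control wells.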

Colo-357 [4] = system: Colo-357; set-up: Viability of PDAC cell lines, ATPlite luminescence, 11-dose single-agent curve fit; conditions: Homo sapiens, COLO357, 72 h, read-out: EC50 [nM]
In short: as §2

PSN-1 [5] = system: PSN-1; set-up: Viability of PDAC cell lines, ATPlite luminescence, 11-dose single-agent curve fit; conditions: Homo sapiens, PSN1, 72 h, read-out: EC50 [nM]
In short: as §2

HuP-T4 = system: HuP-T4; set-up: Viability of PDAC cell lines, ATPlite luminescence, 11-dose single-agent curve fit; conditions: Homo sapiens, HuP-T4, 72 h, read-out: EC50 [nM]
In short: as §2

AsPC-1 = system: AsPC-1; set-up: Viability of PDAC cell lines, ATPlite luminescence, 11-dose single-agent curve fit; conditions: Homo sapiens, ASPC1, 72 h, read-out: EC50 [nM]
In short: as §2

BxPC-3 [6] = system: BxPC-3; set-up: Viability of PDAC cell lines, ATPlite luminescence, 11-dose single-agent curve fit; conditions: Homo sapiens, BXPC-3, 72 h, read-out: EC50 [nM]
In short: as §2

PANC-1 = system: PANC-1; set-up: Viability of PDAC cell lines, ATPlite luminescence, 11-dose single-agent curve fit; conditions: Homo sapiens, PANC-1, 72 h, read-out: EC50 [nM]
In short: as §2

HPDE = system: HPDE; set-up: Viability of PDAC cell lines, ATPlite luminescence, 11-dose single-agent curve fit; conditions: HPDE, 72 h, read-out: EC50 [nM]
In short: as §2

Suit2-07 [7] = system: Suit2-07; set-up: Viability of PDAC cell lines, ATPlite luminescence, 11-dose single-agent curve fit; conditions: 72 h, read-out: EC50 [nM]
In short: as §2

FAMPAC [8] = system: FAMPAC; set-up: Viability of PDAC cell lines, ATPlite luminescence, 11-dose single-agent curve fit; conditions: 72 h, read-out: EC50 [nM]
In short: as §2

PSN-1 [9] = system: PSN-1; set-up: ATPlite luminescence viability of PDAC cell lines, 11-dose single-agent curves, 4-parameter fit; conditions: Homo sapiens, PSN1, 72 h, read-out: EC50 [nM]
Description: as §1

BxPC-3 [10] = system: BxPC-3; set-up: ATPlite luminescence viability of PDAC cell lines, 11-dose single-agent curves, 4-parameter fit; conditions: Homo sapiens, BXPC-3, 72 h, read-out: EC50 [nM]
Description: as §1

Suit2-07 [11] = system: Suit2-07; set-up: ATPlite luminescence viability of PDAC cell lines, 11-dose single-agent curves, 4-parameter fit; conditions: 72 h, read-out: EC50 [nM]
Description: as §1

FAMPAC [12] = system: FAMPAC; set-up: ATPlite luminescence viability of PDAC cell lines, 11-dose single-agent curves, 4-parameter fit; conditions: 72 h, read-out: EC50 [nM]
Description: as §1

MiaPaCa-2 [13] = system: MiaPaCa-2; set-up: Viability of PDAC cell lines, ATPlite luminescence, 11-dose single-agent curve fit; conditions: Homo sapiens, MIA PaCa-2, 72 h, read-out: EC50 [nM]
In short: as §2

Dan-G [14] = system: Dan-G; set-up: Viability of PDAC cell lines, ATPlite luminescence, 11-dose single-agent curve fit; conditions: 72 h, read-out: EC50 [nM]
In short: as §2

PaTu-8988-T [15] = system: PaTu-8988-T; set-up: Viability of PDAC cell lines, ATPlite luminescence, 11-dose single-agent curve fit; conditions: Homo sapiens, PaTu 8988t, 72 h, read-out: EC50 [nM]
In short: as §2

Colo-357 [16] = system: Colo-357; set-up: ATPlite luminescence viability of PDAC cell lines, 11-dose single-agent curves, 4-parameter fit; conditions: Homo sapiens, COLO357, 72 h, read-out: EC50 [nM]
Description: as §1

| EC50 (Colo-357 [4]) [nM] | EC50 (AsPC-1) [nM] | EC50 (BxPC-3 [6]) [nM] | EC50 (PANC-1) [nM] | EC50 (MiaPaCa-2 [13]) [nM] | Compound | EC50 (Capan-1) [nM] | EC50 (PSN-1 [5]) [nM] | EC50 (HuP-T4) [nM] | EC50 (HPDE) [nM] | EC50 (Suit2-07 [7]) [nM] | EC50 (FAMPAC [8]) [nM] | EC50 (Dan-G [14]) [nM] | EC50 (PaTu-8988-T [15]) [nM] | other results |
| --- | --- | --- | --- | --- | --- | --- | --- | --- | --- | --- | --- | --- | --- | --- |
| 4380 | > 10000 | > 10000 | 3550 | – | COc1cc2nccc(Oc3ccc(NC(=O)C4(C(=O)Nc5ccc(F)cc5)CC4)cc3)c2cc1OC [Cabozantinib] | 6600 | > 10000 | 3810 | > 10000 | > 10000 | > 10000 | – | – | EC50 (MiaPaCa-2 [1]): > 10000 nM; EC50 (Dan-G [2]): > 10000 nM; EC50 (PaTu-8988-T [3]): 4020 nM |
| 9480 | 975 | – | 5600 | 971 | CC(C)(C)c1nc(-c2cccc(NS(=O)(=O)c3c(F)cccc3F)c2F)c(-c2ccnc(N)n2)s1 [Dabrafenib] | 50.5 | – | 1830 | 197 | – | – | 274 | 749 | EC50 (PSN-1 [9]): 341 nM; EC50 (BxPC-3 [10]): 348 nM; EC50 (Suit2-07 [11]): 883 nM; EC50 (FAMPAC [12]): 428 nM |
| 109 | 7970 | > 10000 | 4980 | > 10000 | Cn1cc(C2=C(c3cn(C4CCN(Cc5ccccn5)CC4)c4ccccc34)C(=O)NC2=O)c2ccccc21 [Enzastaurin] | 401 | – | 2270 | 9200 | > 10000 | > 10000 | 873 | 5780 | EC50 (PSN-1 [9]): > 10000 nM |
| – | 2530 | 3910 | 3010 | 8760 | CC[C@H](Nc1ncnc2[nH]cnc12)c1nc2cccc(F)c2c(=O)n1-c1ccccc1 [Idelalisib] | 9330 | 545 | 754 | 9240 | 5950 | > 10000 | – | 10000 | EC50 (Colo-357 [16]): 3360 nM; EC50 (Dan-G [2]): 2130 nM |
| 953 | 4110 | – | 8650 | – | N#CCNC(=O)c1ccc(-c2ccnc(Nc3ccc(N4CCOCC4)cc3)n2)cc1 [Momelotinib] | 9140 | – | 2670 | 8470 | – | – | 6780 | – | EC50 (MiaPaCa-2 [1]): > 10000 nM; EC50 (PSN-1 [9]): > 10000 nM; EC50 (Suit2-07 [11]): 5780 nM; EC50 (PaTu-8988-T [3]): > 10000 nM; EC50 (FAMPAC [12]): > 10000 nM |
| 7820 | 446 | 3550 | > 10000 | 5000 | O=C(c1cc(Cc2n[nH]c(=O)c3ccccc23)ccc1F)N1CCN(C(=O)C2CC2)CC1 [Olaparib] | > 10000 | > 10000 | 3200 | 1490 | 9600 | – | – | 1870 | EC50 (Dan-G [2]): 3940 nM; EC50 (FAMPAC [12]): 8230 nM |
| 317 | 3330 | 5.83 | 66.8 | > 10000 | Cc1cc(C)c(/C=C2\C(=O)Nc3ccccc32)[nH]1 [Semaxanib] | 5010 | 127 | 42.4 | > 10000 | 2320 | 43.5 | 169 | 815 | – |
| 6810 | > 10000 | 4560 | 7980 | – | Cc1cc2cc(Oc3ccnc(Nc4cccc(CS(=O)(=O)NCCN(C)C)c4)n3)ccc2[nH]1 [Sulfatinib] | 3530 | 5780 | 1900 | 5550 | > 10000 | > 10000 | > 10000 | – | EC50 (MiaPaCa-2 [1]): 3080 nM; EC50 (PaTu-8988-T [3]): > 10000 nM |
| 24.5 | 66.8 | 2600 | > 10000 | 344 | O=c1sn(-c2cccc3ccccc23)c(=O)n1Cc1ccccc1 [Tideglusib] | 51.8 | 0.13 | 4540 | 58 | 9730 | 2070 | 1490 | 636 | – |
| 0.12 | 26.5 | 683 | 655 | > 10000 | CC(C)Oc1ccc(-c2nn([C@@H](C)c3oc4ccc(F)cc4c(=O)c3-c3cccc(F)c3)c3ncnc(N)c23)cc1F [Umbralisib] | 39.7 | 62.6 | 1370 | 6540 | 1310 | 8790 | 441 | 4550 | – |
| 1.06 | 137 | 704 | 215 | 1590 | CC[C@@H]1CN(C(=O)NCC(F)(F)F)C[C@@H]1c1cnc2cnc3[nH]ccc3n12 [Upadacitinib] | 0.18 | 7050 | 973 | 26.9 | 6.77 | 49 | 309 | > 10000 | – |
| 7510 | 78.2 | 2150 | 3660 | 6110 | Cc1cccc(-c2[nH]c(CNc3ccccc3F)nc2-c2ccc3ncnn3c2)n1 [Vactosertib] | 809 | 4290 | 17.8 | 217 | 0.8 | 3450 | 51.8 | 838 | – |
| 3990 | > 10000 | 9360 | > 10000 | > 10000 | Clc1ccc(Nc2nnc(Cc3ccncc3)c3ccccc23)cc1 [Vatalanib] | 4530 | 4870 | 23.9 | 32.8 | > 10000 | 6650 | 6860 | 3840 | – |
| 5000 | 869 | > 10000 | 6.65 | > 10000 | CCCS(=O)(=O)Nc1ccc(F)c(C(=O)c2c[nH]c3ncc(-c4ccc(Cl)cc4)cc23)c1F [Vemurafenib] | > 10000 | > 10000 | > 10000 | > 10000 | 1590 | 2990 | > 10000 | 708 | – |
| 226 | 114 | 2030 | 3950 | 8640 | C[C@@H](c1ccc2nccn2c1)n1nnc2ncc(-c3cnn(C)c3)nc21 [Volitinib] | > 10000 | 16.9 | 91.1 | 80 | 285 | 1030 | 5780 | > 10000 | – |
